Key:
[1] = test system: L1210; experiment: In vitro cytotoxicity in L1210 cell lines; format: functional, cell-based, Mus musculus
[2] = Compound was evaluated for relative DNA alkylation efficiency.; format: functional

COC(=O)c1cc2c([nH]1)C(=O)C=C1N(C(=O)c3cc4ccccc4[nH]3)C[C@H]3C[C@]123 (stereo in doubt; (+)-4) [listing 1 of 2 here]
IC50 [1]: 0.065 nM

COC(=O)c1cc2c([nH]1)C(=O)C=C1N(C(=O)c3cc4ccccc4[nH]3)C[C@H]3C[C@]123 (stereo in doubt; (+)-4) [listing 2 of 2 here]
krel [2]: 0.05

COC(=O)c1cc2c([nH]1)C(=O)C=C1N(C(=O)c3cc4cc(OC)ccc4[nH]3)C[C@H]3C[C@]123 (stereo in doubt; (+)-5) [listing 1 of 2 here]
IC50 [1]: 0.01 nM

COC(=O)c1cc2c([nH]1)C(=O)C=C1N(C(=O)c3cc4cc(OC)ccc4[nH]3)C[C@H]3C[C@]123 (stereo in doubt; (+)-5) [listing 2 of 2 here]
krel [2]: 1

COC(=O)c1cc2c([nH]1)C(=O)C=C1N(C(=O)c3cc4ccc(OC)cc4[nH]3)C[C@H]3C[C@]123 (stereo in doubt; (+)-6) [listing 1 of 2 here]
IC50 [1]: 0.025 nM

COC(=O)c1cc2c([nH]1)C(=O)C=C1N(C(=O)c3cc4ccc(OC)cc4[nH]3)C[C@H]3C[C@]123 (stereo in doubt; (+)-6) [listing 2 of 2 here]
krel [2]: 0.2

COC(=O)c1cc2c([nH]1)C(=O)C=C1N(C(=O)c3cc4cccc(OC)c4[nH]3)C[C@H]3C[C@]123 (stereo in doubt; (+)-7) [listing 1 of 2 here]
IC50 [1]: 0.06 nM

COC(=O)c1cc2c([nH]1)C(=O)C=C1N(C(=O)c3cc4cccc(OC)c4[nH]3)C[C@H]3C[C@]123 (stereo in doubt; (+)-7) [listing 2 of 2 here]
krel [2]: 0.1

COC(=O)c1cc2c([nH]1)C(=O)C=C1N(C(=O)c3cc4ccccc4[nH]3)C[C@H]3C[C@]123 (stereo in doubt; (-)-4)
IC50 [1]: 1.7 nM

COC(=O)c1cc2c([nH]1)C(=O)C=C1N(C(=O)c3cc4cc(OC)ccc4[nH]3)C[C@H]3C[C@]123 (stereo in doubt; (-)-5)
IC50 [1]: 0.3 nM

COC(=O)c1cc2c([nH]1)C(=O)C=C1N(C(=O)c3cc4ccc(OC)cc4[nH]3)C[C@H]3C[C@]123 (stereo in doubt; (-)-6)
IC50 [1]: 1.3 nM

COC(=O)c1cc2c([nH]1)C(=O)C=C1N(C(=O)c3cc4cccc(OC)c4[nH]3)C[C@H]3C[C@]123 (stereo in doubt; (-)-7)
IC50 [1]: 1.8 nM

COC(=O)c1cc2c([nH]1)C(=O)C=C1N(C(=O)c3cc4cc(OC)c(OC)c(OC)c4[nH]3)C[C@H]3C[C@]123 [DUOCARMYCIN]
IC50 [1]: 0.1 nM | krel [2]: 1

Source: ChEMBL document CHEMBL1129167, “Examination of the role of the duocarmycin SA methoxy substituents: Identification of the minimum, fully potent DNA binding subunit” (Bioorg Med Chem Lett, 1996)
